Each structure is given as a SMILES string. Structures can show the parent of a compound that is named as a salt.

The subject of series [1] is B16 melanoma cells. Kind of series: Cytotoxicity assay for murine cancer cells (MTT). The format is cell-based. Conditions: Mus musculus, 48 h exposure. As to the method:
Murine B16 melanoma cells, Lewis lung carcinoma cells and colon 26 carcinoma cells were grown in DMEM medium containing 2 mM L-glutamine, 10% foetal bovine serum, 100 U/mL penicillin and 100 μg/mL streptomycin (37° C., 5% CO2). […] Exponentially growing cells were plated onto 96-well plates at 5000 cells per well in 100 μL of culture medium. 24 h after plating, 100 μl of medium containing the tested compound at final concentrations ranging from 0.01 to 100 μM were added to the wells (in triplicate) containing the cells, and incubated for 48 h at 37° C. and 5% CO2. After the 48 h exposure period to the test compounds, cell viability was assayed using the MTT (methylthiazoletetrazolium) test (Scudiero et al., Cancer Res. 1988, 48, 4827-4833) and absorbance was read at 562 nm in a microplate reader (BioKinetics Reader, EL340). Appropriate controls with DMEM only and MTT were run to subtract background absorbance.

In series [2] the test system is EAhy 926 endothelial cell line. The series can be described thus: Endothelial cell morphology evaluation (rounding up). The format is cell-based. Conditions: Homo sapiens, EA.hy 926; 2 h incubation; rounding up of more than 15% of cells; read-out: Cmarr EA.hy 926: lowest concentration at which cell rounding up was observed. From the text: To assess the effects of the compounds on the morphology of endothelial cells, the EAhy 926 endothelial cell line was used, which is derived from the fusion of human umbilical vein endothelial cells (HUVEC) with the permanent human cell line A549 (Edgell et al, Proc. Natl. Acad. Sci. U.S.A., 1983, vol 80, issue 12, 3734-3737). The EAhy 926 cell line is considered as a good representative of native HUVEC because it expresses most of the biochemical markers of parental HUVEC (Bouis et al., Angiogenesis., 2001, 4, 91-102). EAhy 926 cells were grown in DMEM containing 2 mM L-glutamine, 10% foetal bovine serum, 100 U/mL penicillin and 100 μg/mL streptomycin in a humidified atmosphere (37° C., 5% CO2). Exponentially growing EAhy 926 cells were plated onto 96 well plates at 5000 cells/100 μL/well. Twenty-four hours after plating, the medium was aspirated, and 100 μL of medium containing the test compound was added to the well containing the cells (in triplicate) and incubated for 2 h (37° C., 5% CO2). The highest concentration used was 100 μM followed by serial two-fold dilutions down to low nanomolar concentrations, if needed for the most morphologically active compounds. After the 2 h-incubation period, digital photographs were taken of representative centre areas of each well at a magnification of 100× and 200×. The results are presented as the minimum concentration that could elicit the rounding up of more than 15% of cells in a field in order to exclude normal mitotic cells which is less that 15% in control 1% DMSO treated cells. Triplicate concentrations on the same plate were routinely carried out. CA4 was included in the experiments as a positive internal standard.
Compounds of the invention were first tested on EAhy 926 endothelial cells, which are transformed HUVEC (human umbilical vein endothelial cells). These cells undergo a rounding up upon a short 2 hour exposure to vascular disrupting agents, e.g. combretastatin A4.

Series [3] has as its system tubulin. The series can be described thus: Tubulin polymerization inhibition assay (DAPI fluorescence). The format is biochemical. Conditions: for IC50: tubulin 1 mg/ml, DAPI, read-out: IPT (inhibition of tubulin polymerization) IC50; for Inhibition of tubulin polymerization at 30 μM: IC50 ND. The source says: Fluorescence was then read at the excitation wavelength of 360 nm and emission of 450 nm.

With `COc1cc(Nc2c3c(nc4cc(C)c(C)cc24)CCCC3=O)cc(OC)c1OC` [SGR 364•HCl, 6,7-(Dimethyl)-9-(3,4,5-trimethoxyphenylamino)-3,4-dihydroacridin-1(2H)-one, hydrochloride], in series [1], the 50% inhibitory concentration (IC50) (in general, the concentration needed to halve the response being measured) stood at 12.6 µM. Further, the minimal effective concentration in series [2] was 6.25 µM. Turning to `COc1cc(Nc2c3c(nc4cc5c(cc24)OCO5)CCC3=O)cc(OC)c1OC` (as salt: hydrochloride) [SGR 358•HCl, 6,7-(Methylenedioxy)-9-(3,4,5-trimethoxyphenylamino)-2,3-dihydro-1H-cyclopenta[b]quinolin-1-one, hydrochloride], the melting point (commonly the temperature of the solid-liquid transition) came to 267 °C. As to `COc1cc(Nc2c3c(nc4cc5c(cc24)OCO5)CCC=C3)cc(OC)c1OC` [SGR 309], the IC50 in series [1] is 11 µM; in series [3], 18.2 µM. The minimal effective concentration in series [2] was determined as 3.13 µM. In series [1], `O=C1CCCc2nc3cc4c(cc3cc21)OCO4` [SGR 304] displayed an IC50 of over 100 µM. Moreover, the “Inhibition of tubulin polymerization at 30 μM” value (from here on “Inhibition”) in series [3] is on record as “ND (33% à 30 μM)”. Besides, in series [2], the minimal effective concentration was over 100 µM. Consider `COc1ccc(/C=C\c2cc(OC)c(OC)c(OC)c2)cc1O` [combretastatin A4, reference compound], for which the IC50 in series [3] stood at […]. With `COc1cc(Nc2c3c(nc4cc5c(cc24)OCO5)CCCC3=O)cc(OC)c1` (as salt: hydrochloride) [SGR 363•HCl, 6,7-(Methylenedioxy)-9-(3,5-dimethoxyphenylamino)-3,4-dihydroacridin-1(2H)-one, hydrochloride], the melting point is 256 °C. In the case of `COc1cc([C@@H]2c3cc4c(cc3[C@H](O)[C@H]3COC(=O)[C@H]23)OCO4)cc(OC)c1OC` [podophyllotoxin], in series [3], the IC50 came to […]. For the compound `O=C1CCCc2nc3cc4c(cc3c(Nc3ccc5c(c3)OCO5)c21)OCO4` [SGR 355•HCl, 6,7-(Methylenedioxy)-9-(3,4-methylenedioxyphenyl-amino)-3,4-dihydroacridin-1(2H)-one, hydrochloride], in series [1], the concentration for half-maximal inhibition (IC50) was 17.4 µM. Moreover, the minimal effective concentration in series [2] came out at 100 µM. As for `COc1cc(Nc2c3c(nc4cc5c(cc24)OCO5)COC3=O)cc(OC)c1OC` [SGR 231, reference compound], the values for the half-inhibitory concentration (IC50) in series [1] and in series [3] were 0.4 µM and 0.42 µM, respectively. The minimal effective concentration in series [2] is 1.95 µM. The compound `COc1cc(Nc2c3c(nc4cc5c(cc24)OCCO5)CCCC3=O)cc(OC)c1OC` (as salt: hydrochloride) [SGR 360•HCl, 6,7-(Ethylenedioxy)-9-(3,4,5-trimethoxyphenylamino)-3,4-dihydroacridin-1(2H)-one, hydrochloride] returned a melting point of 266 °C. With `COc1cc(CNc2c3c(nc4cc5c(cc24)OCO5)CCCC3=O)cc(OC)c1OC.Cl` [SGR 357•HCl], it took 8.9 µM to reach half-maximal inhibition in series [1] (IC50). In addition, in series [3], the “Inhibition” value is on record as “ND (18% à 30 μM)”. Moreover, the minimal effective concentration in series [2] was determined as 25 µM.

Take `O=C1CCCc2c1cc1cc3c(cc1[n+]2[O-])OCO3` [SGR 305]: the half-maximal inhibitory concentration (IC50) in series [1] is over 100 µM. In addition, in series [3], the “Inhibition” value is “ND (22% à 30 μM)”. The minimal effective concentration in series [2] is over 100 µM. `O=C1CCCc2nc3cc4c(cc3c(Nc3ccc5c(c3)OCO5)c21)OCO4` (as salt: hydrochloride) [SGR 355•HCl, 6,7-(Methylenedioxy)-9-(3,4-methylenedioxyphenyl-amino)-3,4-dihydroacridin-1(2H)-one, hydrochloride] gave a melting point of 260 °C. On to `COc1cc(NC2=C3C(=O)OCC3N(C)c3cc4c(cc32)OCO4)cc(OC)c1OC` (stereo not drawn) [SGR 230, reference compound], for which the IC50 in series [1] was determined as 38.4 µM; in series [3], 1.04 µM. For the same compound, in series [2], the minimal effective concentration was 0.12 µM. In turn, `COc1cc(Nc2c3c(nc4cc5c(cc24)OCO5)CCCC3O)cc(OC)c1OC` (stereo not drawn) [SGR 308] registered an IC50 in series [1] of 29.5 µM. Besides, the “Inhibition” value in series [3] is listed as “ND (31% à 30 μM)”. In series [2], the minimal effective concentration was 25 µM. The compound `COc1ccc(Nc2c3c(nc4cc5c(cc24)OCO5)CCC3=O)cc1OC` [SGR 359•HCl, 6,7-(Methylenedioxy)-9-(3,4-dimethoxyphenylamino)-2,3-dihydro-1H-cyclopenta[b]quinolin-1-one, hydrochloride] yielded a half-inhibitory concentration (IC50) in series [1] of 17.4 µM. For the same compound, the minimal effective concentration in series [2] amounted to 25 µM. Take `COc1cc(Nc2c3c(nc4cc5c(cc24)OCO5)CCCC3=O)cc(OC)c1` [SGR 363•HCl, 6,7-(Methylenedioxy)-9-(3,5-dimethoxyphenylamino)-3,4-dihydroacridin-1(2H)-one, hydrochloride]: the IC50 in series [1] turned out to be 1.4 µM. In series [2], the minimal effective concentration worked out at 0.06 µM.

Compound `COc1cc(Nc2c3c(nc4cc(C)c(C)cc24)CCCC3=O)cc(OC)c1OC` (as salt: hydrochloride) [SGR 364•HCl, 6,7-(Dimethyl)-9-(3,4,5-trimethoxyphenylamino)-3,4-dihydroacridin-1(2H)-one, hydrochloride] registered a melting point of 216 °C. `COc1cccc(Nc2c3c(nc4cc5c(cc24)OCO5)CCCC3=O)c1` [SGR 356•HCl, 6,7-(Methylenedioxy)-9-(3-methoxyphenylamino)-3,4-dihydroacridin-1(2H)-one, hydrochloride] returned an IC50 in series [1] of over 100 µM. Further, the minimal effective concentration in series [2] is 50 µM. Regarding `COc1ccc(Nc2c3c(nc4cc5c(cc24)OCO5)CCC3=O)cc1OC` (as salt: hydrochloride) [SGR 359•HCl, 6,7-(Methylenedioxy)-9-(3,4-dimethoxyphenylamino)-2,3-dihydro-1H-cyclopenta[b]quinolin-1-one, hydrochloride], the melting point was determined as 256 °C. `COc1cc(Nc2c3c(nc4cc5c(cc24)OCCO5)CCCC3=O)cc(OC)c1` (as salt: hydrochloride) [SGR 361•HCl, 6,7-(Ethylenedioxy)-9-(3,5-dimethoxyphenylamino)-3,4-dihydroacridin-1(2H)-one, hydrochloride] returned a melting point of 254 to 255 °C. For the compound `COc1cc(Nc2c3c(nc4cc5c(cc24)OCCO5)CCCC3=O)cc(OC)c1OC` [SGR 360•HCl, 6,7-(Ethylenedioxy)-9-(3,4,5-trimethoxyphenylamino)-3,4-dihydroacridin-1(2H)-one, hydrochloride], the IC50 in series [1] came out at 8.1 µM. For the same compound, in series [2], the minimal effective concentration amounted to 0.06 µM. For `COc1cc(Nc2c3c(nc4cc5c(cc24)OCO5)CCC3=O)cc(OC)c1OC` [SGR 358•HCl, 6,7-(Methylenedioxy)-9-(3,4,5-trimethoxyphenylamino)-2,3-dihydro-1H-cyclopenta[b]quinolin-1-one, hydrochloride] the same measures were 1.01 µM and 0.25 µM. Compound `COc1cccc(Nc2c3c(nc4cc5c(cc24)OCO5)CCCC3=O)c1` (as salt: hydrochloride) [SGR 356•HCl, 6,7-(Methylenedioxy)-9-(3-methoxyphenylamino)-3,4-dihydroacridin-1(2H)-one, hydrochloride] yielded a melting point of 258 °C. With `O=C1CCCc2nc3cc4c(cc3c(Cl)c21)OCO4` [SGR 306], the IC50 in series [1] was over 100 µM. Also, the “Inhibition” value in series [3] was “ND (3% à 30 μM)”. In series [2], the minimal effective concentration was found to be 12.5 µM.
